Experimental data: PubChem BioAssay (NCI)
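Exposure lasted 48 hours, with cells grown in 96-well plates and compounds tested at five concentrations. TGI is the concentration that stops growth completely.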

How the values were obtained:
Test in all cases: DTP human tumour cell line panel, 48 h
[1] = system: A498 renal
[2] = system: COLO 205 colon
[3] = system: HOP-92 NSCLC
[4] = system: HS 578T breast
[5] = system: K-562 leukemia
[6] = system: M14 melanoma
[7] = system: MDA-N
[8] = system: OVCAR-4 ovarian
[9] = system: DLD-1 colon
[10] = system: DMS 273 small cell lung
[11] = system: KM20L2 colon
[12] = system: LXFL 529 NSCLC
[13] = system: SNB-78 CNS

Q: How did the TGI [1] turn out when `CNC(=O)CCC(NC(C)=O)C(=O)NC(Cc1ccc(NC(=O)CCCCC(C)=O)cc1)C(=O)NC(CCC(=O)NC)C(=O)NC` (stereo not given) was run?
A: Its TGI is greater than 100 µM.

Q: And the TGI [2]?
A: The TGI was greater than 100 µM.

Q: What about the TGI [3] of the same molecule?
A: Its TGI is greater than 100 µM.

Q: And the TGI [4]?
A: Its TGI is greater than 100 µM.

Q: What about the TGI [5] of the same molecule?
A: The TGI was greater than 100 µM.

Q: What about the TGI [6] of the same molecule?
A: Its TGI is greater than 100 µM.

Q: And the TGI [7]?
A: The TGI was greater than 100 µM.

Q: What about the TGI [8] of the same molecule?
A: Its TGI is greater than 100 µM.

Q: With `C/C(O)=C(\C=N\C(N)=S)C(=O)Nc1ccccc1C` as the molecule, how does the TGI [1] read?
A: Its TGI is greater than 100 µM.

Q: And the TGI [2]?
A: The TGI was greater than 100 µM.

Q: And the TGI [3]?
A: Its TGI is greater than 100 µM.

Q: What about the TGI [4] of the same molecule?
A: The TGI was greater than 100 µM.

Q: What about the TGI [5] of the same molecule?
A: The TGI was greater than 100 µM.

Q: And the TGI [6]?
A: Its TGI is greater than 100 µM.

Q: And the TGI [7]?
A: The TGI was greater than 100 µM.

Q: What about the TGI [8] of the same molecule?
A: The TGI was greater than 100 µM.

Q: Which TGI [1] does the source give for `Cc1nc(C)c(C(=O)Nc2cccc3c2C(=O)NC3=O)cc1C(=O)Nc1cccc2c1C(=O)NC2=O` here?
A: Its TGI is greater than 100 µM.

Q: What about the TGI [2] of the same molecule?
A: The TGI was greater than 100 µM.

Q: And the TGI [9]?
A: The TGI was greater than 100 µM.

Q: And the TGI [10]?
A: Its TGI is greater than 100 µM.

Q: What about the TGI [3] of the same molecule?
A: The TGI was greater than 100 µM.

Q: And the TGI [5]?
A: The TGI was greater than 100 µM.

Q: What about the TGI [11] of the same molecule?
A: Its TGI is greater than 100 µM.

Q: What about the TGI [12] of the same molecule?
A: The TGI was greater than 100 µM.

Q: What about the TGI [6] of the same molecule?
A: Its TGI is greater than 100 µM.

Q: What about the TGI [8] of the same molecule?
A: Its TGI is greater than 100 µM.

Q: And the TGI [13]?
A: Its TGI is greater than 100 µM.

Q: `O=C(N/N=C\c1cccc2ccccc12)Nc1ccc([N+](=O)[O-])cc1` was tested. Which TGI [1] did it give?
A: The TGI was greater than 100 µM.

Q: And the TGI [2]?
A: The TGI was greater than 60.7 µM.

Q: What about the TGI [3] of the same molecule?
A: The TGI was 26.2 µM.

Q: And the TGI [4]?
A: Its TGI is greater than 100 µM.

Q: What about the TGI [5] of the same molecule?
A: The TGI was greater than 100 µM.

Q: And the TGI [6]?
A: Its TGI is greater than 100 µM.

Q: And the TGI [7]?
A: The TGI was greater than 89 µM.

Q: And the TGI [8]?
A: The TGI was greater than 71.6 µM.

Q: What does the source list for `CC(C)CCC[C@@H](C)[C@H]1CC[C@H]2[C@@H]3CC=C4C[C@@H](OC(=O)c5cccc6c(=O)c7ccccc7[nH]c56)CC[C@]4(C)[C@H]3CC[C@]12C`?
A: TGI [1]: > 75 µM; TGI [2]: > 75 µM; TGI [3]: > 75 µM; TGI [4]: > 75 µM; TGI [5]: > 75 µM; TGI [6]: > 75 µM; TGI [7]: > 75 µM; TGI [8]: > 75 µM

Q: What does the source list for `CC1=CC(O)C(O)C2(C)C1CC1OC(=O)C(O)C3C(C)C(O)C4(O)OCC13C42` (stereo not given)?
A: TGI [1]: 72.1 µM; TGI [2]: 79.7 µM; TGI [9]: > 625 µM; TGI [10]: > 567 µM; TGI [3]: 14.6 µM; TGI [5]: > 394 µM; TGI [11]: 233 µM; TGI [8]: 476 µM; TGI [13]: 154 µM

Q: With `Cc1ccc2nc3c(C)c(Cl)c(=O)cc-3sc2c1` as the molecule, how does the TGI [1] read?
A: Its TGI is greater than 100 µM.

Q: And the TGI [2]?
A: Its TGI is greater than 80.8 µM.

Q: And the TGI [9]?
A: Its TGI is greater than 100 µM.

Q: And the TGI [10]?
A: The TGI was greater than 91.3 µM.

Q: And the TGI [3]?
A: Its TGI is greater than 92.3 µM.

Q: And the TGI [4]?
A: Its TGI is 71.7 µM.

Q: What about the TGI [5] of the same molecule?
A: Its TGI is 19 µM.

Q: And the TGI [11]?
A: The TGI was greater than 100 µM.

Q: What about the TGI [12] of the same molecule?
A: Its TGI is greater than 100 µM.

Q: What about the TGI [6] of the same molecule?
A: The TGI was 36.4 µM.

Q: And the TGI [7]?
A: Its TGI is 32.1 µM.

Q: What about the TGI [8] of the same molecule?
A: The TGI was greater than 100 µM.

Q: What about the TGI [13] of the same molecule?
A: Its TGI is 96.9 µM.

Q: For `COc1ccc(/C=C2\Cc3ccccc3C2=O)cc1OC`, which TGI [1] is on record?
A: The TGI was greater than 100 µM.

Q: And the TGI [2]?
A: Its TGI is greater than 100 µM.

Q: What about the TGI [9] of the same molecule?
A: Its TGI is greater than 100 µM.

Q: What about the TGI [5] of the same molecule?
A: Its TGI is greater than 100 µM.

Q: And the TGI [11]?
A: The TGI was greater than 100 µM.

Q: What about the TGI [12] of the same molecule?
A: The TGI was greater than 100 µM.

Q: What about the TGI [6] of the same molecule?
A: Its TGI is greater than 100 µM.

Q: What about the TGI [8] of the same molecule?
A: Its TGI is greater than 100 µM.

Q: What about the TGI [13] of the same molecule?
A: Its TGI is greater than 100 µM.

Q: How did the TGI [1] turn out when `O=S1(=O)NNC(=NCc2ccc(Cl)cc2)c2ccccc21` was run?
A: Its TGI is greater than 100 µM.

Q: What about the TGI [2] of the same molecule?
A: The TGI was greater than 100 µM.

Q: What about the TGI [9] of the same molecule?
A: The TGI was greater than 100 µM.

Q: And the TGI [10]?
A: Its TGI is greater than 100 µM.

Q: What about the TGI [3] of the same molecule?
A: Its TGI is greater than 100 µM.

Q: What about the TGI [5] of the same molecule?
A: The TGI was greater than 100 µM.

Q: What about the TGI [11] of the same molecule?
A: The TGI was greater than 100 µM.

Q: What about the TGI [12] of the same molecule?
A: The TGI was greater than 100 µM.

Q: What about the TGI [6] of the same molecule?
A: Its TGI is greater than 100 µM.

Q: What about the TGI [8] of the same molecule?
A: The TGI was greater than 100 µM.

Q: And the TGI [13]?
A: Its TGI is greater than 100 µM.

Q: What does the source list for `CC(C)(C)N=C1CC(C)(C)c2ccccc2C(=Nc2ccccc2)S1`?
A: TGI [1]: > 100 µM; TGI [2]: 49.6 µM; TGI [9]: > 100 µM; TGI [10]: > 100 µM; TGI [5]: > 100 µM; TGI [11]: > 100 µM; TGI [12]: > 100 µM; TGI [6]: > 100 µM; TGI [13]: > 100 µM

Q: How did the TGI [1] turn out when `CCCCc1c2c(nc3c1CCc1cc4c(nc1-3)-c1nc3c(c(CCCC)c1CC4)CCC/C3=C\c1ccccc1)/C(=C/c1ccccc1)CCC2` was run?
A: Its TGI is greater than 100 µM.

Q: What about the TGI [2] of the same molecule?
A: The TGI was greater than 100 µM.

Q: What about the TGI [9] of the same molecule?
A: The TGI was greater than 100 µM.

Q: What about the TGI [10] of the same molecule?
A: Its TGI is greater than 100 µM.

Q: And the TGI [3]?
A: Its TGI is greater than 100 µM.

Q: What about the TGI [5] of the same molecule?
A: The TGI was greater than 100 µM.

Q: What about the TGI [11] of the same molecule?
A: The TGI was greater than 100 µM.

Q: What about the TGI [12] of the same molecule?
A: The TGI was greater than 100 µM.

Q: And the TGI [6]?
A: The TGI was greater than 100 µM.

Q: What about the TGI [13] of the same molecule?
A: Its TGI is greater than 100 µM.

Q: Which TGI [1] does the source give for `N#Cc1c(Nc2ccc(F)cc2)[n+]([O-])c2ccc(Cl)cc2[n+]1[O-]` here?
A: The TGI was 8.63 µM.

Q: What about the TGI [2] of the same molecule?
A: Its TGI is 4.52 µM.

Q: And the TGI [3]?
A: The TGI was 5.16 µM.

Q: What about the TGI [4] of the same molecule?
A: The TGI was greater than 100 µM.

Q: And the TGI [5]?
A: The TGI was 8.56 µM.

Q: What about the TGI [6] of the same molecule?
A: Its TGI is 44.2 µM.

Q: What about the TGI [7] of the same molecule?
A: Its TGI is greater than 100 µM.

Q: And the TGI [8]?
A: The TGI was 5.71 µM.

Q: With `C#CCNC(Cc1cnc[nH]1)C(=O)O` (stereo not given) as the molecule, how does the TGI [1] read?
A: Its TGI is greater than 100 µM.

Q: What about the TGI [2] of the same molecule?
A: Its TGI is greater than 100 µM.

Q: And the TGI [3]?
A: The TGI was greater than 100 µM.

Q: And the TGI [4]?
A: Its TGI is greater than 100 µM.

Q: What about the TGI [5] of the same molecule?
A: Its TGI is greater than 100 µM.

Q: What about the TGI [6] of the same molecule?
A: The TGI was greater than 100 µM.

Q: And the TGI [7]?
A: Its TGI is greater than 100 µM.

Q: And the TGI [8]?
A: Its TGI is greater than 100 µM.
